Results from ChEMBL document CHEMBL1143403, “Location of persisting mycobacteria in a Guinea pig model of tuberculosis revealed by r207910” (2007).

Columns and labels:
[1] = test system: Mycobacterium tuberculosis; assay type: functional; settings: dose 10 mg/kg; route oral
[2] = test system: Mycobacterium tuberculosis; assay type: functional; settings: dose 5 mg/kg; route oral
[3] = test system: Mycobacterium tuberculosis; assay type: functional, Spleen; settings: dose 5 mg/kg; route oral
[4] = test system: Mycobacterium tuberculosis; assay type: functional; settings: dose 15 mg/kg; route oral
[5] = test system: Mycobacterium tuberculosis; assay type: functional, Spleen; settings: dose 10 mg/kg; route oral
[6] = test system: Mycobacterium tuberculosis; assay type: functional, Spleen; settings: dose 15 mg/kg; route oral

COc1nc2ccc(Br)cc2cc1[C@@H](c1ccccc1)[C@](O)(CCN(C)C)c1cccc(F)c1
CFU [1]: 251 | log10cfu [1]: 1.29 | CFU [2]: 358 | log10cfu [2]: 2.27 | log10cfu [3]: 0.54 | CFU [4]: 46 | log10cfu [4]: 0.93 | log10cfu [5]: 0.46 | log10cfu [6]: 0.98
